# Test results: patent US9174980B2, “Heterocyclic compounds as inhibitors of leukotriene production” (Boehringer Ingelheim International GmbH, priority 2012, dated 2015)
# Legend:
# [1] = target: T1, recombinant human FLAP protein (Homo sapiens, UniProt P20292); experiment: FLAP binding assay (Scintillation Proximity Assay, displacement of [125I]L-691,831); conditions: read-out: Human FLAP SPA Binding (IC50 nM)
# T1 construct: made in house; host or cells: Sf9 insect cells (membrane fraction, 100,000 x g pellet)
# T1 sequence (P20292 1-161): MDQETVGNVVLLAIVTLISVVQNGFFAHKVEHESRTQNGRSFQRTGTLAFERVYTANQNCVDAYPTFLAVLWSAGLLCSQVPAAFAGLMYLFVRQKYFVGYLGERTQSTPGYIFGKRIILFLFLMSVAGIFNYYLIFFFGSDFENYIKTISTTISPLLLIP
# Description: Compounds are assessed for the ability to bind to FLAP in a binding assay that measures compound-specific displacement of an iodinated (^125I) FLAP inhibitor via a Scintillation Proximity Assay format (adapted from S. Charleson et al., Mol. Pharmacol., 1992, 41, 873-879).
# Cell pellets produced from sf9 insect cells expressing recombinant human FLAP protein are resuspended in buffer A [15 mM Tris-HCl (pH 7.5), 2 mM MgCl2, 0.3 mM EDTA, 1 mM PMSF]. The cells are lysed with a Dounce homogenizer and the material is centrifuged at 10,000×g for 10 minutes. The supernatant is then collected and centrifuged at 100,000×g for 60 minutes. To prepare membrane protein for an assay, an aliquot of the 100,000×g pellet is resuspended in 1 ml of buffer A, Dounce homogenized, and finally subjected to polytron mixing (30 seconds). Membrane protein (25 μl, 5 μg) is mixed with WGA SPA beads (Amersham) and stirred for 1 h. To an assay plate (Perkin Elmer FlexiPlate) is added 25 μl of test compound prepared in Binding buffer [100 mM Tris (pH 7.5), 140 mM NaCl, 5% glycerol, 2 mM EDTA, 0.5 mM TCEP, 0.05% Tween 20], 25 μl of [^125I]L-691,831 (an iodinated analog of MK-591, Charleson et al. Mol. Pharmacol., 41, 873-879, 1992) and finally 50 μl of the bead/protein mixture. (final concentrations: beads, 200 μg/well; protein, 5 μg/well; [^125I] probe, 0.08 nM/well (17 nCi/well). The plates are shaken for 2 h before reading on a Microbeta plate reader. Non-specific binding is determined by the addition of 10 μM cold L-691,831 compound.
# [2] = test system: synthesis of LTB4 in human whole blood; experiment: Human whole blood assay (calcimycin-stimulated LTB4 synthesis); format: cell-based; conditions: Homo sapiens; read-out: Human Whole Blood LTB4 Assay for FLAP (IC50 nM)
# Description: Compounds are additionally tested in a human whole blood assay to determine their ability to inhibit the synthesis of LTB4 in a cellular system. Compounds are combined with heparinized human whole blood and incubated for 15 minutes at 37° C. Calcimycin (20 μM final, prepared in phosphate-buffered saline, pH 7.4) is then added and the mixture is incubated for another 30 minutes at 37° C. The samples are centrifuged for 5 min at low speed (1500×g) and the plasma layer is removed. Plasma LTB4 concentrations are then measured using an antibody-based homogenous time-resolved fluorescence method (CisBio, Bedford, Mass.).
Structure (SMILES),IC50 [1],IC50 [2]
"CC(C)C(C)(c1ccc(-c2cnc(N)nc2)cc1)c1c[nH]c2ccccc12 (stereo not shown) [Example 42, 5-{4-[2-(1H-indol-3-yl)-3-methylbutan-2-yl]phenyl}pyrimidin-2-amine]",2.5 nM,170 nM
"Cc1cn(C(C)(c2ccc(-c3cnc(N)nc3)cc2)C(C)C)c2ccccc12 (stereo not shown) [Example 43, 5-{4-[3-methyl-2-(3-methyl-1H-indol-1-yl)butan-2-yl]phenyl}pyrimidin-2-amine]",30 nM,1500 nM
"Cn1nc(C(c2ccc(-c3cnc(N)nc3)cc2)C(C)(C)C)c2ccccc21 (stereo not shown) [Example 44, 5-[4-[2,2-dimethyl-1-(1-methylindazol-3-yl)propyl]phenyl]pyrimidin-2-amine]",21 nM,> 5000 nM
"COc1cccc2c(C(C)(c3ccc(-c4cnc(N)nc4)cc3)C(C)C)c[nH]c12 (stereo not shown) [Example 45, 5-{4-[2-(7-methoxy-1H-indol-3-yl)-3-methylbutan-2-yl]phenyl}pyrimidin-2-amine]",1.4 nM,260 nM
"CC(C)C(C)(c1ccc(-c2cnc(N)nc2)cc1)c1cn(CC(=O)O)c2ncccc12 (stereo not shown) [Example 47, (3-{2-[4-(2-aminopyrimidin-5-yl)phenyl]-3-methylbutan-2-yl}-1H-pyrrolo[2,3-b]pyridin-1-yl)acetic acid]",4.6 nM,> 5000 nM
"CC(C)C(C)(c1ccc(-c2cnc(N)nc2)cc1)c1cn(Cc2ccccn2)c2cc(F)ccc12 (stereo not shown) [Example 49, 5-(4-{2-[6-fluoro-1-(pyridin-2-ylmethyl)-1H-indol-3-yl]-3-methylbutan-2-yl}phenyl)pyrimidin-2-amine]",2 nM,810 nM
"COc1cccc2c1c(C(C)(c1ccc(-c3cnc(N)nc3)cc1)C(C)C)cn2Cc1ccccn1 (stereo not shown) [Example 50, 5-(4-{2-[4-methoxy-1-(pyridin-2-ylmethyl)-1H-indol-3-yl]-3-methylbutan-2-yl}phenyl)pyrimidin-2-amine]",260 nM,> 5000 nM
"COc1cccc2c(C(C)(c3ccc(-c4cnc(N)nc4)cc3)C(C)C)cn(Cc3ccccn3)c12 (stereo not shown) [Example 51, 5-(4-{2-[7-methoxy-1-(pyridin-2-ylmethyl)-1H-indol-3-yl]-3-methylbutan-2-yl}phenyl)pyrimidin-2-amine]",2.7 nM,840 nM
"CC(C)C(C)(c1ccc(-c2cnc(N)nc2)cc1)c1cn(CCN2CCN(C)CC2)c2ccccc12 (stereo not shown) [Example 52, 5-[4-(3-methyl-2-{1-[2-(4-methylpiperazin-1-yl)ethyl]-1H-indol-3-yl}butan-2-yl)phenyl]pyrimidin-2-amine]",3.1 nM,2200 nM
"COC(c1ccc(-c2cnc(N)nc2)cc1)(c1nn(C)c2ccccc12)C(C)(C)C (stereo not shown) [Example 53, 5-[4-[1-methoxy-2,2-dimethyl-1-(1-methylindazol-3-yl)propyl]phenyl]pyrimidin-2-amine]",400 nM,> 5000 nM
"CC(C)C(C)(c1ccc(-c2cnc(N)nc2)cc1)c1c[nH]c2cc(OC3CCOC3)ccc12 (stereo not shown) [Example 54, 5-(4-{3-methyl-2-[6-(tetrahydrofuran-3-yloxy)-1H-indol-3-yl]butan-2-yl}phenyl)pyrimidin-2-amine]",8.3 nM,840 nM
"COCC(C)(c1ccc(-c2cnc(N)nc2)cc1)c1cn(CC(=O)O)c2ncccc12 (stereo not shown) [Example 55, (3-{2-[4-(2-aminopyrimidin-5-yl)phenyl]-1-methoxypropan-2-yl}-1H-pyrrolo[2,3-b]pyridin-1-yl)acetic acid]",1100 nM,> 5000 nM
"COCC(C)(c1ccc(-c2cnc(N)nc2)cc1)c1cn(C)c2ncccc12 (stereo not shown) [Example 56, 5-{4-[1-methoxy-2-(1-methyl-1H-pyrrolo[2,3-b]pyridin-3-yl)propan-2-yl]phenyl}pyrimidin-2-amine]",160 nM,> 5000 nM
"COc1cccc2[nH]cc(C(C)(c3ccc(-c4cnc(N)nc4)cc3)C(C)C)c12 (stereo not shown) [Example 57, 5-{4-[2-(4-methoxy-1H-indol-3-yl)-3-methylbutan-2-yl]phenyl}pyrimidin-2-amine]",37 nM,2600 nM
